Assay results reported in patent publication US9247759B2, “Identification of human T2R receptors that respond to bitter compounds that elicit the bitter taste in compositions, and the use thereof in assays to identify compounds that inhibit (block) bitter taste in compositions and use thereof” (SENOMYX, INC., priority 2007, dated 2016).
Where two headings read alike, the source gives them in different places.

How the values were obtained:
hT2R14 [1] = target: T1, hT2R14 (Homo sapiens (Human), UniProt Q9NYV8); assay: hT2R panel inhibition, transient HEK293 G16g44, agonist Aristolochic Acid 2 μM; type: cell-based; settings: HEK293, compound at 25 μM; receptor activated to EC80 with agonist; read-out: inhibition of bitter receptor 14
In short: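 Each hT2R was transiently transfected into HEK293 cells stably expressing G16g44 and assayed functionally for inhibition of agonist response. Agonists were applied at EC80: andrographolide at 0.5 mM for hT2R8 and aristolochic acid at 2 μM for hT2R14.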

hT2R14 [2] = target: T1, hT2R14; assay: hT2R14 antagonist high-throughput FLIPR assay, stable cell line with G16g44, agonist aristolochic acid; type: cell-based
In short: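 HEK293 cells stably expressing hT2R14 with chimeric G16g44 were stimulated with aristolochic acid (3 μM), giving 70-80% of maximal receptor activity. Test compounds were added together with the agonist, and antagonism was read as fluorescent calcium signal on FLIPR.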

hT2R61 = hT2R61 (Homo sapiens (Human), UniProt P59537); assay: hT2R panel inhibition, transient HEK293 G16g44, agonist Aristolochic Acid 25 nM; type: cell-based; settings: HEK293, compound at 25 μM; receptor activated to EC80 with agonist; read-out: inhibition of bitter receptor 61
In short: (§1)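 Agonist concentrations were set at EC80 for each receptor. Activity was compared with and without the test compound, and the reduction recorded as inhibition, across 22 individually transfected human T2Rs.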

hT2R5 = hT2R5 (Homo sapiens (Human), UniProt Q9NYW4); assay: hT2R panel inhibition, transient HEK293 G16g44, agonist Picoline 10 mM; type: cell-based; settings: HEK293, compound at 25 μM; receptor activated to EC80 with agonist; read-out: inhibition of bitter receptor 5
In short: as §1

hT2R7 = hT2R7 (Homo sapiens (Human), UniProt Q9NYW3); assay: hT2R panel inhibition, transient HEK293 G16g44, agonist Chloroquine pH6.5 10 mM; type: cell-based; settings: HEK293, compound at 25 μM; receptor activated to EC80 with agonist; read-out: inhibition of bitter receptor 7
In short: as §1

hT2R3 = hT2R3 (Homo sapiens (Human), UniProt Q9NYW6); assay: hT2R panel inhibition, transient HEK293 G16g44, agonist Chloroquine pH6.5 50 μM; type: cell-based; settings: HEK293, compound at 25 μM; receptor activated to EC80 with agonist; read-out: inhibition of bitter receptor 3
In short: as §1

hT2R44 = assay: hT2R panel inhibition, transient HEK293 G16g44, agonist Denatonium 0.5 μM; type: cell-based, human; settings: compound at 25 μM; receptor activated to EC80 with agonist
In short: as §1

hT2R64 = hT2R64 (Homo sapiens (Human), UniProt P59538); assay: hT2R panel inhibition, transient HEK293 G16g44, agonist Aristolochic Acid 1 μM; type: cell-based; settings: HEK293, compound at 25 μM; receptor activated to EC80 with agonist; read-out: inhibition of bitter receptor 64
In short: as §1

hT2R13 = hT2R13 (Homo sapiens (Human), UniProt Q9NYV9); assay: hT2R panel inhibition, transient HEK293 G16g44, agonist Oxyphenonium 1 mM; type: cell-based; settings: HEK293, compound at 25 μM; receptor activated to EC80 with agonist; read-out: inhibition of bitter receptor 13
Method: Specifically, in order to evaluate the inhibitory selectivity of the Compound C compound, this compound was tested against 22 human T2Rs which were deorphaned by Senomyx. These receptors and the bitter ligands that activate these human T2Rs are reported in earlier patent applications which are incorporated by reference herein. These 22 human T2Rs are hT2R1, 3, 4, 5, 7, 8, 9, 10, 13, 14, 16, 44, 51, 54, 55, 61, 63, 64, 65, 67, 71 and 75. The amino acid and nucleic acid sequences of all of these T2Rs may be found in these earlier patent applications. These human T2Rs were each individually transiently transfected into HEK293 cells that stably express the promiscuous G protein G16g44 and functional assays were effected using these receptors as disclosed in these same patent applications. […] The ligands were used at EC80 concentration levels. The list of bitter ligands utilized and the tested ligand concentrations are contained in Table 5 of this example.
Relating to the foregoing, FIG. 5 contains experimental results wherein Compound C was tested with different agonist compounds. The inhibition activity is represented by the reduction of receptor activity in the presence of Compound C. […] These 13 hT2Rs are hT2R3, 7, 10, 14, 16, 44, 51, 55, 61, 63, 64, 65, and 71.

hT2R63 = assay: hT2R panel inhibition, transient HEK293 G16g44, agonist Caffeine 1 mM or Andrographolide 100 μM; type: cell-based, human; settings: compound at 25 μM; receptor activated to EC80 with agonist
In short: as §1

hT2R71 = hT2R71 (Homo sapiens (Human), UniProt P59536); assay: hT2R panel inhibition, transient HEK293 G16g44, agonist Picric Acid 10 μM; type: cell-based; settings: HEK293, compound at 25 μM; receptor activated to EC80 with agonist; read-out: inhibition of bitter receptor 71
In short: as §1

T1 sequence (Q9NYV8 whole entry): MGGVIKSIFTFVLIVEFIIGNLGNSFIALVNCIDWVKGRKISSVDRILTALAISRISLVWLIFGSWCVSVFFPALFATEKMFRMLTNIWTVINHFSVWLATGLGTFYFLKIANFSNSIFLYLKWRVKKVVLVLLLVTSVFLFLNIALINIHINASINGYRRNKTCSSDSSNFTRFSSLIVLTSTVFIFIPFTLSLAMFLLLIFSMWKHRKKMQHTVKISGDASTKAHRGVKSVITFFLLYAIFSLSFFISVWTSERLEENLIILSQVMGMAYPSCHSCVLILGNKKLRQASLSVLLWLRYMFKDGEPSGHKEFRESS
Chain of hT2R13 (Q9NYV9 whole entry): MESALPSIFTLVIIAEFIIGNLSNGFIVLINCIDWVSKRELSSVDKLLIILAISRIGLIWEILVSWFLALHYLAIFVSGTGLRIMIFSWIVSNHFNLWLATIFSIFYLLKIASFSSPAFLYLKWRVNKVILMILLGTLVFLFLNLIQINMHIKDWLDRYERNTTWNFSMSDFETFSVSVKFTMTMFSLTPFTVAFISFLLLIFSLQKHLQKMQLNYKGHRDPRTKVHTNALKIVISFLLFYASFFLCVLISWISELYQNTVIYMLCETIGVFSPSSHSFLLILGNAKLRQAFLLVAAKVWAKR
Chain of hT2R71 (P59536 whole entry): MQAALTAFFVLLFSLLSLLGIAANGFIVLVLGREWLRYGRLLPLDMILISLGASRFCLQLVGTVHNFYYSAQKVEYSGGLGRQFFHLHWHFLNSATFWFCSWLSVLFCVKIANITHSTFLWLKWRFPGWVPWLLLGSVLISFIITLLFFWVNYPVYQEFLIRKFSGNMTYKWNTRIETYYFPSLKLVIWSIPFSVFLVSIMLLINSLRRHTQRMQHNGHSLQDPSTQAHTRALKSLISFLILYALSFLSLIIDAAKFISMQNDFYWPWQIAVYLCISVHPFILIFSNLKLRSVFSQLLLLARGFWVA
Chain of hT2R7 (Q9NYW3 whole entry): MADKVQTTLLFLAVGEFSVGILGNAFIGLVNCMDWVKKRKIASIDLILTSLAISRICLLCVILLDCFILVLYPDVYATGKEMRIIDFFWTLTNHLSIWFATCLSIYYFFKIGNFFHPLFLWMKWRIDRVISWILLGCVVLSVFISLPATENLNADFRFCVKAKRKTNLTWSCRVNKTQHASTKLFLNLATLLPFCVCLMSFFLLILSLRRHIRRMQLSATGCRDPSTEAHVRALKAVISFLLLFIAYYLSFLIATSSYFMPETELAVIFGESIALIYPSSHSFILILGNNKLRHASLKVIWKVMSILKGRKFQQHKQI
Chain of hT2R61 (P59537 whole entry): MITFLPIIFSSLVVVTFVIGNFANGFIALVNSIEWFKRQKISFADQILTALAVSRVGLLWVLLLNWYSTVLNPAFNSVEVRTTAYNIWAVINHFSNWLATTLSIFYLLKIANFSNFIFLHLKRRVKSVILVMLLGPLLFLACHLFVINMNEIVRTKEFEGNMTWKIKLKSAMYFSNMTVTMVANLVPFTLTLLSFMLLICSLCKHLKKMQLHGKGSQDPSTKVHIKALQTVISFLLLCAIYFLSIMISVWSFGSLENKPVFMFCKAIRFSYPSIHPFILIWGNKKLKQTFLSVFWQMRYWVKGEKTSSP
Chain of hT2R5 (Q9NYW4 whole entry): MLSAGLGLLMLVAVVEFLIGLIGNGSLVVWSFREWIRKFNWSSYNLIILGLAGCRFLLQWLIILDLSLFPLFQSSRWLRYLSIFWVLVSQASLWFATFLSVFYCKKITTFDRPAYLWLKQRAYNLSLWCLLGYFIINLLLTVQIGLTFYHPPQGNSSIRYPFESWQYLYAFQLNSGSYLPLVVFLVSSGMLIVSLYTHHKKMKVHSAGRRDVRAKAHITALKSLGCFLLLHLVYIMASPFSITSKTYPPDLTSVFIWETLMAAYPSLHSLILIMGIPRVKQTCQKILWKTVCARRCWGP
Chain of hT2R3 (Q9NYW6 whole entry): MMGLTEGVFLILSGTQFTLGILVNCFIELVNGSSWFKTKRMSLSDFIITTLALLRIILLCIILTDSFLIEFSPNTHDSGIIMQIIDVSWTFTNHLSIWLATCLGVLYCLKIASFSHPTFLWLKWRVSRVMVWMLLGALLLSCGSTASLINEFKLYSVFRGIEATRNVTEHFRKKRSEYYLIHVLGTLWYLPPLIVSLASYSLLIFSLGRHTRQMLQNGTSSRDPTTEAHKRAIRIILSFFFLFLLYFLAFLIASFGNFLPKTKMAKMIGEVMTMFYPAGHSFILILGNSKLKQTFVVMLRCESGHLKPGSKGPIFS
Chain of hT2R64 (P59538 whole entry): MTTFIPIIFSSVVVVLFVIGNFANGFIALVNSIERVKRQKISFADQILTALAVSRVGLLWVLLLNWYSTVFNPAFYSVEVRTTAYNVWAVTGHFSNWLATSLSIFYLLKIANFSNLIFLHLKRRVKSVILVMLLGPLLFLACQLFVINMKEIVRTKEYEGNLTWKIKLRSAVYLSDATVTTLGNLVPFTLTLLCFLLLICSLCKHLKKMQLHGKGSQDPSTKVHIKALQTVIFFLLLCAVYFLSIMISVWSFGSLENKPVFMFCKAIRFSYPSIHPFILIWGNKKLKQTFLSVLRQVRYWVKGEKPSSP

SMILES	inhibition at 25 µM (hT2R14 [1]) [%]	IC50 (hT2R14 [2]; Table D, read-out: hT2R14 IC50) [µM]	inhibition at 25 µM (hT2R61) [%]	inhibition at 25 µM (hT2R5) [%]	inhibition at 25 µM (hT2R7) [%]	inhibition at 25 µM (hT2R3) [%]	inhibition of bitter receptor 44 (hT2R44)	inhibition at 25 µM (hT2R64) [%]	inhibition at 25 µM (hT2R13) [%]	IC50 (hT2R14 [2]; read-out: IC50 on hT2R14 bitter receptor) [µM]	inhibition of bitter receptor 63 (hT2R63)	inhibition at 25 µM (hT2R71) [%]
Cc1cc2c(cc1S(=O)(=O)Nc1ccc(F)cc1)n(C)c(=O)c(=O)n2C [Example 6-10, N-(4-fluorophenyl)-1,4,7-trimethyl-2,3-dioxo-1,2,3,4-tetrahydroquinoxaline-6-sulfonamide]	40 to 60	12.6	20 to 40	20 to 40	20 to 40	20 to 40	+ (20% to 40% inhibition = +)	20 to 40	40 to 60	–	–	–
Cn1c(=O)c(=O)n(C)c2cc(S(=O)(=O)Nc3ccc4c(c3)OCCO4)ccc21 [Example 6-3, N-(2,3-dihydrobenzo[b][1,4]dioxin-6-yl)-1,4-dimethyl-2,3-dioxo-1,2,3,4-tetrahydroquinoxaline-6-sulfonamide]	> 80	–	–	–	–	–	+ (20% to 40% inhibition = +)	–	20 to 40	7.71	+ (20% to 40% inhibition = +)	20 to 40
CCN(C(=O)CN(C)S(=O)(=O)c1ccc2c(c1)n(C)c(=O)c(=O)n2C)c1cccc(C)c1 [Example 6-11, N-ethyl-N-m-tolyl-2-(N,1,4-trimethyl-2,3-dioxo-1,2,3,4-tetrahydroquinoxaline-6-sulfonamido)acetamide]	20 to 40	14.9	20 to 40	20 to 40	20 to 40	–	–	–	40 to 60	–	–	20 to 40
